Data published in US9510592B2, “Pesticidal compositions and processes related thereto” (Dow AgroSciences LLC, priority 2012, dated 2016).
Where two headings read alike, the source gives them in different places.

Legend:
[1] = tested on: Beet Armyworm (Spodoptera exigua); experiment: Bioassay on Beet Armyworm (BAW), 128-well diet tray assay; format: in vivo; conditions: Spodoptera exigua, 168 h, percent mortality of second instar larvae, 50 μg/cm^2 on artificial diet, five to seven days, 25° C., read-out: BAW Rating
Method in brief: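 Second-instar larvae (one to five per well) were placed on artificial diet surface-treated with 50 μg/cm^2 compound in acetone-water and held at 25 °C, 14:10 light-dark, for five to seven days. Percent mortality was averaged over eight wells.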

[2] = tested on: Cabbage Looper (Trichoplusia ni); experiment: Bioassay on Cabbage Looper (CL), 128-well diet tray assay; format: in vivo; conditions: percent mortality of second instar larvae, 50 μg/cm^2 on artificial diet, five to seven days, 25° C.; Table 3A
Method: (§1) Certain molecules disclosed in this document were tested against BAW and CEW and CL using procedures described in the following examples. In the reporting of the results, the “BAW & CEW & CL Rating Table” was used (See Table Section).
Bioassays on CL (Trichoplusia ni)
Bioassays on CL were conducted using a 128-well diet tray assay. One to five second instar CL larvae were placed in each well (3 mL) of the diet tray that had been previously filled with 1 mL of artificial diet to which 50 μg/cm^2 of the test compound (dissolved in […] of 90:10 acetone-water mixture) had been applied (to each of eight wells) and then allowed to dry. Trays were covered with a clear self-adhesive cover, and held at 25° C., 14:10 light-dark for five to seven days. Percent mortality was recorded for the larvae in each well; activity in the eight wells was then averaged. The results are indicated in the table entitled “Table 3A: Assay Results” (See Table Section).

[3] = tested on: Green Peach Aphid (Myzus persicae); experiment: Bioassay on Green Peach Aphid (GPA), foliar spray on cabbage seedlings; format: in vivo; conditions: 72 h, corrected % control (Abbott), 200 ppm spray on cabbage seedlings, three days
Method: Certain molecules disclosed in this document were tested against GPA using procedures described in the following example. In the reporting of the results, the “GPA Rating Table” was used (See Table Section). Cabbage seedlings grown in 3-inch pots, with 2-3 small (3-5 cm) true leaves, were used as test substrate. The seedlings were infested with 20-50 GPA (wingless adult and nymph stages) one day prior to chemical application. Four pots with individual seedlings were used for each treatment. Test compounds (2 mg) were dissolved in 2 mL of acetone/MeOH (1:1) solvent, forming stock solutions of 1000 ppm test compound. The stock solutions were diluted 5× with 0.025% Tween 20 in water to obtain the solution at 200 ppm test compound. A hand-held aspirator-type sprayer was used for spraying a solution to both sides of […] leaves until runoff. Reference plants (solvent check) were sprayed with the diluent only containing 20% by volume of acetone/MeOH (1:1) solvent. Treated plants were held in a holding room for three days at approximately 25° C. and ambient relative humidity (RH) prior to grading. Evaluation was conducted by counting the number of live aphids per plant under a microscope. Percent Control was measured by using Abbott's correction formula (W. S. Abbott, “A Method of Computing the Effectiveness of an Insecticide” J. Econ. Entomol. 18 (1925), pp. 265-267) as follows. Corrected % Control=100*(X−Y)/X • where • X=No. of live aphids on solvent check plants and • Y=No. of live aphids on treated plants The results are indicated in the table entitled “Table 3: Assay Results” (See Table Section).

[4] = tested on: Corn Earworm (Helicoverpa zea); experiment: Bioassay on Corn Earworm (CEW), 128-well diet tray assay; format: in vivo; conditions: Helicoverpa zea, 168 h; percent mortality of second instar larvae, 50 μg/cm^2 on artificial diet, five to seven days, 25° C.; Table 3; read-out: CEW Rating
Method: as §1
Bioassays On CEW (Helicoverpa zea)
Bioassays on CEW were conducted using a 128-well diet tray assay. one to five second instar CEW larvae were placed in each well (3 mL) of the diet tray that had been previously filled with 1 mL of artificial diet to which 50 μg/cm^2 of the test compound (dissolved in 50 μL of 90:10 acetone-water mixture) had been applied (to each of eight wells) and then allowed to dry. Trays were covered with a clear self-adhesive cover, and held at 25° C., 14:10 light-dark for five to seven days. Percent mortality was recorded for the larvae in each well; activity in the eight wells was then averaged. The results are indicated in the table entitled “Table 3: Assay Results” (See Table Section).

Row | SMILES | pest or weed control at 50 µg/cm2, 50 µg/cm2 ([1]; Table 3A) [%] | CL Rating [2] | further results
1 | NC(=O)c1ccc(/C=C/C(c2cc(Cl)cc(Cl)c2)C(F)(F)F)cc1 (stereo not shown) [AC2] | – | – | melting point: 110 to 112 °C
2 | O=C(CC(F)(F)F)NNC(=O)c1ccc(/C=C/C(c2cc(Cl)c(Cl)c(Cl)c2)C(F)(F)F)cc1Br (stereo not shown) [Compound F1] | 50 to 100 | A (50-100) | –
3 | CCC(=O)NNC(=O)c1ccc(/C=C/C(c2cc(Cl)c(Cl)c(Cl)c2)C(F)(F)F)cc1Br (stereo not shown) [Compound F8] | 50 to 100 | A (50-100) | –
4 | CCC(=O)N(C)NC(=O)c1ccc(/C=C/C(c2cc(Cl)c(Cl)c(Cl)c2)C(F)(F)F)cc1Br (stereo not shown) [Compound F11, (E)-2-Bromo-N′-methyl-N′-propionyl-4-(4,4,4-trifluoro-3-(3,4,5-trichlorophenyl)but-1-en-1-yl)benzohydrazide] | 50 to 100 | A (50-100) | –
5 | O=C(NCCNC(=O)C(F)(F)F)c1ccc(/C=C/C(c2cc(Cl)c(Cl)c(Cl)c2)C(F)(F)F)cc1Br (stereo not shown) [Compound F33] | 50 to 100 | A (50-100) | pest or weed control at 200 ppm ([3]; Table 3A, read-out: GPA Rating): 0 to 80%
6 | N#Cc1cc(/C=C/C(c2ccc(Cl)c(Cl)c2)C(F)(F)F)ccc1-n1cncn1 (stereo not shown) [DC28] | – | – | pest or weed control at 50 µg/cm2, 50 µg/cm2 ([1]; Table 3): 50 to 100%; pest or weed control at 50 µg/cm2 [4]: 50 to 100%; pest or weed control at 200 ppm ([3]; Table 3, read-out: GPA Rating): 0 to 80%
7 | N#Cc1cc(/C=C/C(c2cc(Cl)c(Cl)c(Cl)c2)C(F)(F)F)ccc1-n1cncn1 (stereo not shown) [DC31] | – | – | pest or weed control at 50 µg/cm2, 50 µg/cm2 ([1]; Table 3): 50 to 100%; pest or weed control at 50 µg/cm2 [4]: 50 to 100%; pest or weed control at 200 ppm ([3]; Table 3, read-out: GPA Rating): 0 to 80%
